In patent US4618678A, “4-(2,3-dichloro-6-fluorophenyl)-1,4,5,6,7,8-hexahyd ro-2-methyl-5-oxo-1,7-naphthyridine-3-carboxylic acid 2-(2,3-dichlorophenoxy)ethyl ester” (American Home Products Corporation, priority 1985, dated 1986):

Assays:
[1] = system: Ca^+2 -calmodulin dependent myosin light chain phosphorylation; experiment: Inhibition of Ca+2-calmodulin dependent myosin light chain phosphorylation (MLCP); type: biochemical; settings: 'unlike' = does not antagonize as the compounds of the invention do
Method: (§1) The data reported herein was obtained at a six minute time-point rather than the 1.5, 5 and 12 minute time points indicated in the superprecipitation assay of the Silver et al. paper.
(§2) The following examples illustrate the preparation of a representative number of compounds of this invention. After each example, the Ca^+2 antagonist activity of the compound is presented in terms of percent relaxation of aortic tissue (P.R.) at 10^-5 M concentration. […] Inhibition of superprecipitation (Antag. of Actin-Myosin interaction) is expressed as percent inhibition (mean±standard error of the mean for at least 3 separate experiments) at a compound concentration. In the same manner, inhibition of myosin light chain phosphorylation (Antag. of MLCP) is expressed as a percent inhibition at a compound concentration. Similarly, the antihypertensive activity is reported in terms of millimeters mercury (mmHg) systolic blood pressure (B.P.) reduction at the stated time post 50 mg/kg oral dosing or other dosing as indicated.

[2] = system: arterial actin-myosin interactions; experiment: Inhibition of superprecipitation (antagonism of arterial actin-myosin interaction); type: biochemical; settings: for antagonism of arterial actin-myosin interactions (in words): 'unlike' = does not antagonize as the compounds of the invention do; for Antag. of Actin-Myosin (percent inhibition of superprecipitation): six minute time-point
Method: as §1, §2

[3] = system: isolated paced intact rabbit atria; experiment: Cardiac depressant (negative inotropic) effect in isolated paced intact rabbit atria; type: cell-based; settings: 3 Hz, 30° C.
Method: The potential for detrimental cardiac depressant (negative inotropic) effects of the compounds of this invention was assessed in isolated paced intact rabbit atria. Left and right atria (with nodal tissue excised) were suspended vertically in a jacketed (30° C.) organ bath containing 50 ml of PSS and aerated with 95% O2 /5% CO2. Muscles (N=5-9/compound) were stimulated at a frequency of 3 Hz with a WPI stimulator for a 60 minute equilibration period. Changes in isometric force were recorded as described for the aoritc smooth muscle experiments,supra. Following equilibration, the test compound (or as a control, the ethanol vehicle) was added to the organ bath in a cumulative manner from doses ranging from 10^-9 M to 10^-5 M (10^-5 M was the maximum dose which could be attained due to the depressant effect of ethanol) and effects on developed isometric force were determined. […]
The following examples illustrate the preparation of a representative number of compounds of this invention. […] Inhibition of superprecipitation (Antag. of Actin-Myosin interaction) is expressed as percent inhibition (mean±standard error of the mean for at least 3 separate experiments) at a compound concentration. In the same manner, inhibition of myosin light chain phosphorylation (Antag. of MLCP) is expressed as a percent inhibition at a compound concentration. […]

[4] = system: spontaneously hypertensive rats; experiment: Hypotensive effect on systolic blood pressure of spontaneously hypertensive rats; type: in vivo, rat; settings: SHR, oral, 10 mg/kg, at 1.5 hours

SMILES	antagonism of Ca^+2 -calmodulin dependent myosin light chain phosphorylation (in words) [1]	antagonism of arterial actin-myosin interactions (in words) [2]	IC25 (concentration producing 25% inhibition of isometric force) [3] [µM]	Antag. of Actin-Myosin (percent inhibition of superprecipitation) ([2]; 50 μM) [%]	Antag. of Actin-Myosin (percent inhibition of superprecipitation) ([2]; 100 μM) [%]	B.P. (systolic blood pressure reduction) [4] [mm]
CCOC(=O)C1=C(C)NC(C)=C(C(=O)OC)C1c1cccc([N+](=O)[O-])c1 (centres unmarked) [nitrendipine, reference compound]	unlike	unlike				
COC(=O)C1=C(C)NC(C)=C(C(=O)OC)C1c1ccccc1[N+](=O)[O-] [nifedipine, reference compound]	unlike	unlike				
COc1ccc(CCN(C)CCCC(C#N)(c2ccc(OC)c(OC)c2)C(C)C)cc1OC (centres unmarked) [Verapamil, reference compound]	unlike	unlike				
CC1=C(C(=O)OCCOc2ccccc2)C(c2c(F)c(F)c(F)c(F)c2F)C2=C(CNCC2=O)N1 (single isomer, unassigned; (+)) [Example 4, (+)-1,4,5,6,7,8-Hexahydro-2-methyl-5-oxo-4-(pentafluorophenyl)-1,7-naphthyridine-3-carboxylic acid 2-phenoxyethyl ester]			0.8	38	71	
CC1=C(C(=O)OCCOc2ccccc2)C(c2c(F)c(F)c(F)c(F)c2F)C2=C(CNCC2=O)N1 (single isomer, unassigned; (-)) [Example 3, (-)-1,4,5,6,7,8-Hexahydro-2-methyl-5-oxo-4-(pentafluorophenyl)-1,7-naphthyridine-3-carboxylic acid 2-phenoxyethyl ester]			> 10	65	76	
CC1=C(C(=O)OCCOc2ccccc2)C(c2c(F)c(F)c(F)c(F)c2F)C2=C(CNCC2=O)N1 (racemic) [Example 2, 1,4,5,6,7,8-Hexahydro-2-methyl-5-oxo-4-(pentafluorophenyl)-1,7-naphthyridine-3-carboxylic acid 2-phenoxyethyl ester]					72±2	39
